According to US8003649B2 (AstraZeneca AB, priority 2007, dated 2011):

Target: T1, Androgen Receptor (AR) (Homo sapiens, UniProt P10275, T878A)
T1 construct: cell based immuno-fluorescence assay using the LNCaP prostate epithelial cell line; endogenous in cells; host or cells: LNCaP clone FGC (ATCC CRL-1740)
T1 sequence (P10275 1-920 T878A): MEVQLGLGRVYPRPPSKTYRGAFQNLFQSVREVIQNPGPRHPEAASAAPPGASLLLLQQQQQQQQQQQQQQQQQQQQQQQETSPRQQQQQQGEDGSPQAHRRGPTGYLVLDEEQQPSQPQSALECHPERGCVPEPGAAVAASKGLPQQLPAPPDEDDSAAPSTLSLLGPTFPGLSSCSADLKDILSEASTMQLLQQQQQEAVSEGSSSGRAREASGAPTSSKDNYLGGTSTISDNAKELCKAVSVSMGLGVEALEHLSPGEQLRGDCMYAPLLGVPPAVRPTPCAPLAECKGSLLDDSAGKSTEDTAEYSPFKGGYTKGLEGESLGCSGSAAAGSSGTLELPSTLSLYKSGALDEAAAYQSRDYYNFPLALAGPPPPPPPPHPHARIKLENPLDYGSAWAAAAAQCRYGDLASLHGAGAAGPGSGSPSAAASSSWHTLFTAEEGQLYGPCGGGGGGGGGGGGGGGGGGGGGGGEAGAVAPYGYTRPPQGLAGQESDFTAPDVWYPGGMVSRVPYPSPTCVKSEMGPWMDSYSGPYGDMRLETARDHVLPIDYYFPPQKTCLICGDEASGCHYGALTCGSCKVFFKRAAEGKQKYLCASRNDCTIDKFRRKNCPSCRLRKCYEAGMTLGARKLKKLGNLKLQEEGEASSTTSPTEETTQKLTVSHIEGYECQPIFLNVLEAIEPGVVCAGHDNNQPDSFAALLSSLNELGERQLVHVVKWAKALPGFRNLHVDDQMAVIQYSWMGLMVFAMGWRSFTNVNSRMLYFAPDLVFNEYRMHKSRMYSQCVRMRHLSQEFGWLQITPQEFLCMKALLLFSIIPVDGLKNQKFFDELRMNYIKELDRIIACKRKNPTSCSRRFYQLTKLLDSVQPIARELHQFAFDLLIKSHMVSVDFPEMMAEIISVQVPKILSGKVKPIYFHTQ
Assay: LNCaP Androgen Receptor Down-regulation Cell Assay (immunofluorescence end point)
Format: cell-based
Conditions: LNCaP prostate carcinoma cells, compound incubation 20-22 hours, 50% reduction of the AR signal; read-out: Androgen Receptor Down-regulation Assay (a) IC50/μM
Outline: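 AR loss reported as IC50 from curve fits of fluorescence dose-response data, with AR immunostained and read by laser-scanning cytometry. Compound exposure was 20-22 h at 37° C in LNCaP cells grown in 5% charcoal-stripped FBS and plated overnight beforehand.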

Point of comparison: `O=C(c1cccc(OC2CCN(c3ccc4nnc(C(F)(F)F)n4n3)CC2)c1)N1CCCC1` [Example 692], DC50 4.2 µM. Against it:
- CN1CCC(NC(=O)c2ccc(C3CCN(c4ccc5nnc(C(F)(F)F)n5n4)CC3)cc2)CC1 [Example 641] — 3-fold lower, 1.4 µM
- CN1CCN(CCNC(=O)c2ccc(C3CCN(c4ccc5nnc(C(F)(F)F)n5n4)CC3)cc2)CC1 [Example 642] — 3-fold lower, 1.4 µM
- CN(CCO)C(=O)c1cccc(C2CCN(c3ccc4nnc(C(F)(F)F)n4n3)CC2)c1 [Example 643] — within 1.5-fold, 6 µM
- O=C(NCCN1CCCC1)c1cccc(C2CCN(c3ccc4nnc(C(F)(F)F)n4n3)CC2)c1 [Example 644] — 2.8-fold lower, 1.5 µM
- CN1CCN(C(=O)c2cccc(C3CCN(c4ccc5nnc(C(F)(F)F)n5n4)CC3)c2)CC1 [Example 645] — 1.8-fold lower, 2.3 µM
- O=C(c1cccc(C2CCN(c3ccc4nnc(C(F)(F)F)n4n3)CC2)c1)N1CCNCC1 [Example 646] — within 1.5-fold, 6.1 µM
- CN(C)C(=O)c1cccc(C2CCN(c3ccc4nnc(C(F)(F)F)n4n3)CC2)c1 [Example 647] — 2.5-fold lower, 1.7 µM
- O=C(c1cccc(C2CCN(c3ccc4nnc(C(F)(F)F)n4n3)CC2)c1)N1CCOCC1 [Example 648] — 2-fold lower, 2.1 µM
- CNC(=O)c1cccc(C2CCN(c3ccc4nnc(C(F)(F)F)n4n3)CC2)c1 [Example 649] — 1.8-fold lower, 2.3 µM
- CN1CCC(NC(=O)c2cccc(C3CCN(c4ccc5nnc(C(F)(F)F)n5n4)CC3)c2)CC1 [Example 651] — 2.2-fold lower, 1.9 µM
- FC(F)(F)c1ccccc1OC1CCN(c2ccc3nnc(C(F)(F)F)n3n2)CC1 [Example 653] — 4.2-fold lower, 1 µM
- N#Cc1ccccc1OC1CCN(c2ccc3nnc(C(F)(F)F)n3n2)CC1 [Example 654] — 1.6-fold lower, 2.6 µM
- CC(=O)Nc1cccc(C2CCN(c3ccc4nnc(C(F)(F)F)n4n3)CC2)c1 [Example 655, N-[3-[1-[3-(trifluoromethyl)[1,2,4]triazolo[4,3-b]pyridazin-6-yl]piperidin-4-yl]phenyl]acetamide] — 3.8-fold lower, 1.1 µM
- CN1CCN(CCCC(=O)Nc2cccc(C3CCN(c4ccc5nnc(C(F)(F)F)n5n4)CC3)c2)CC1 [Example 659, 4-(4-methylpiperazin-1-yl)-N-[3-[1-[3-(trifluoromethyl)-[1,2,4]triazolo[4,3-b]pyridazin-6-yl]piperidin-4-yl]phenyl]butanamide] — 4.2-fold lower, 1 µM
- O=C(CCCN1CCCC1)Nc1cccc(C2CCN(c3ccc4nnc(C(F)(F)F)n4n3)CC2)c1 [Example 660] — 6.7-fold lower, 0.63 µM
- O=C(CCCN1CCOCC1)Nc1cccc(C2CCN(c3ccc4nnc(C(F)(F)F)n4n3)CC2)c1 [Example 661] — 6.5-fold lower, 0.65 µM
- COCCCC(=O)Nc1cccc(C2CCN(c3ccc4nnc(C(F)(F)F)n4n3)CC2)c1 [Example 662, 4-methoxy-N-[3-[1-(3-(trifluoromethyl)-[1,2,4]triazolo[4,3-b]pyridazin-6-yl)piperidin-4-yl]phenyl]butanamide] — within 1.5-fold, 5.4 µM
- CN1CCC(C(=O)Nc2ccc(C3CCN(c4ccc5nnc(C(F)(F)F)n5n4)CC3)cc2)CC1 [Example 663] — 1.6-fold lower, 2.7 µM
- COCC(=O)Nc1ccc(C2CCN(c3ccc4nnc(C(F)(F)F)n4n3)CC2)cc1 [Example 664] — within 1.5-fold, 3.6 µM
- CN1CCN(CCCC(=O)Nc2ccc(C3CCN(c4ccc5nnc(C(F)(F)F)n5n4)CC3)cc2)CC1 [Example 666] — 4.5-fold lower, 0.94 µM
- O=C(CCCN1CCCC1)Nc1ccc(C2CCN(c3ccc4nnc(C(F)(F)F)n4n3)CC2)cc1 [Example 667] — 4.2-fold lower, 1 µM
- O=C(CCCN1CCOCC1)Nc1ccc(C2CCN(c3ccc4nnc(C(F)(F)F)n4n3)CC2)cc1 [Example 668] — 3.8-fold lower, 1.1 µM
- COCCCC(=O)Nc1ccc(C2CCN(c3ccc4nnc(C(F)(F)F)n4n3)CC2)cc1 [Example 669] — 7-fold lower, 0.6 µM
- CN(C)CCCOc1cccc(C2CCN(c3ccc4nnc(C(F)(F)F)n4n3)CC2)c1 [Example 670] — 6.3-fold lower, 0.67 µM
- FC(F)(F)c1nnc2ccc(N3CCC(c4cccc(OCCN5CCCC5)c4)CC3)nn12 [Example 671] — 2.6-fold lower, 1.6 µM
- FC(F)(F)c1nnc2ccc(N3CCC(c4cccc(OCCN5CCNCC5)c4)CC3)nn12 [Example 672] — 7.2-fold lower, 0.58 µM
- FC(F)(F)c1nnc2ccc(N3CCC(c4cccc(OCCCN5CCNCC5)c4)CC3)nn12 [Example 673] — 5.8-fold lower, 0.73 µM
- Cc1cc(COc2cccc(C3CCN(c4ccc5nnc(C(F)(F)F)n5n4)CC3)c2)no1 [Example 674] — 3.8-fold lower, 1.1 µM
- CN(C)CCOc1cccc(C2CCN(c3ccc4nnc(C(F)(F)F)n4n3)CC2)c1 [Example 675] — 2.8-fold lower, 1.5 µM
- FC(F)(F)c1nnc2ccc(N3CCC(c4cccc(OCCN5CCOCC5)c4)CC3)nn12 [Example 676] — 7.5-fold lower, 0.56 µM
- CN1CCC(Oc2cccc(C3CCN(c4ccc5nnc(C(F)(F)F)n5n4)CC3)c2)CC1 [Example 677] — within 1.5-fold, 4.5 µM
- FC(F)(F)c1nnc2ccc(N3CCC(c4cccc(OCc5cnco5)c4)CC3)nn12 [Example 680] — 7-fold lower, 0.6 µM
- Cn1nccc1CCOc1cccc(C2CCN(c3ccc4nnc(C(F)(F)F)n4n3)CC2)c1 [Example 682] — 7.2-fold lower, 0.58 µM
- COCCOc1cccc(C2CCN(c3ccc4nnc(C(F)(F)F)n4n3)CC2)c1 [Example 684] — 6.1-fold lower, 0.69 µM
- CN(CCO)C(=O)c1cccc(OC2CCN(c3ccc4nnc(C(F)(F)F)n4n3)CC2)c1 [Example 685] — within 1.5-fold, 5.7 µM
- O=C(NCCN1CCCC1)c1cccc(OC2CCN(c3ccc4nnc(C(F)(F)F)n4n3)CC2)c1 [Example 686] — the same, 4.2 µM
- CN1CCN(C(=O)c2cccc(OC3CCN(c4ccc5nnc(C(F)(F)F)n5n4)CC3)c2)CC1 [Example 687] — within 1.5-fold, 3.8 µM
- O=C(c1cccc(OC2CCN(c3ccc4nnc(C(F)(F)F)n4n3)CC2)c1)N1CCNCC1 [Example 688] — 1.6-fold higher, 6.6 µM
- COCCNC(=O)c1cccc(OC2CCN(c3ccc4nnc(C(F)(F)F)n4n3)CC2)c1 [Example 689] — within 1.5-fold, 4.1 µM
- O=C(c1cccc(OC2CCN(c3ccc4nnc(C(F)(F)F)n4n3)CC2)c1)N1CC[C@@H](O)C1 [Example 691] — higher, > 28 µM
- O=C(c1cccc(OC2CCN(c3ccc4nnc(C(F)(F)F)n4n3)CC2)c1)N1CCOCC1 [Example 693] — 1.8-fold lower, 2.3 µM
- CNC(=O)c1cccc(OC2CCN(c3ccc4nnc(C(F)(F)F)n4n3)CC2)c1 [Example 694] — within 1.5-fold, 3.2 µM
- CCNC(=O)c1cccc(OC2CCN(c3ccc4nnc(C(F)(F)F)n4n3)CC2)c1 [Example 695] — within 1.5-fold, 3.3 µM
- CN(C)CCNC(=O)c1cccc(OC2CCN(c3ccc4nnc(C(F)(F)F)n4n3)CC2)c1 [Example 696] — the same, 4.2 µM
- O=C(NCCO)c1cccc(OC2CCN(c3ccc4nnc(C(F)(F)F)n4n3)CC2)c1 [Example 697] — higher, > 22 µM
- O=C(NCCN1CCOCC1)c1cccc(OC2CCN(c3ccc4nnc(C(F)(F)F)n4n3)CC2)c1 [Example 698] — within 1.5-fold, 5.6 µM
- COCCN(C)C(=O)c1cccc(OC2CCN(c3ccc4nnc(C(F)(F)F)n4n3)CC2)c1 [Example 699] — 2-fold lower, 2.1 µM
- O=C(c1cccc(OC2CCN(c3ccc4nnc(C(F)(F)F)n4n3)CC2)c1)N1CC[C@H](O)C1 [Example 700] — 1.7-fold higher, 7.1 µM
- Cc1cc(CNC(=O)c2cccc(OC3CCN(c4ccc5nnc(C(F)(F)F)n5n4)CC3)c2)no1 [Example 702] — higher, > 12 µM
- CN1CCC(NC(=O)c2cccc(OC3CCN(c4ccc5nnc(C(F)(F)F)n5n4)CC3)c2)CC1 [Example 703] — within 1.5-fold, 5.5 µM
- CN1CCN(CCNC(=O)c2cccc(OC3CCN(c4ccc5nnc(C(F)(F)F)n5n4)CC3)c2)CC1 [Example 704] — the same, 4.2 µM
- O=C(NCCn1cccn1)c1cccc(OC2CCN(c3ccc4nnc(C(F)(F)F)n4n3)CC2)c1 [Example 705] — within 1.5-fold, 5.3 µM
- Cn1ccc(CNC(=O)c2cccc(OC3CCN(c4ccc5nnc(C(F)(F)F)n5n4)CC3)c2)n1 [Example 706] — within 1.5-fold, 2.9 µM
- O=C(NCc1cocn1)c1cccc(OC2CCN(c3ccc4nnc(C(F)(F)F)n4n3)CC2)c1 [Example 707] — 1.9-fold higher, 7.9 µM
- CN1CCN(CC(=O)Nc2ccc(C3CCN(c4ccc5nnc(C(F)(F)F)n5n4)CC3)cc2)CC1 [Example 708, 2-(4-methylpiperazin-1-yl)-N-[4-[1-[3-(trifluoromethyl)[1,2,4]triazolo[4,3-b]pyridazin-6-yl]piperidin-4-yl]phenyl]acetamide] — within 1.5-fold, 6.2 µM
- O=C(CN1CCCC1)Nc1ccc(C2CCN(c3ccc4nnc(C(F)(F)F)n4n3)CC2)cc1 [Example 709] — 2.5-fold lower, 1.7 µM
- O=C(CN1CCOCC1)Nc1ccc(C2CCN(c3ccc4nnc(C(F)(F)F)n4n3)CC2)cc1 [Example 710] — 2-fold lower, 2.1 µM
- CN1CCN(CC(=O)Nc2cccc(C3CCN(c4ccc5nnc(C(F)(F)F)n5n4)CC3)c2)CC1 [Example 711] — 1.7-fold lower, 2.5 µM
